The results in this text go back to PubChem BioAssay AID330 (DTP/NCI, 2004).

The test system of the assay is P388 leukemia ip, CD2F1 mice, survival T/C. The assay can be described thus: NCI In Vivo Anticancer Drug Screen. Data for tumor model P388 Leukemia (intraperitoneal) in CD2F1 (CDF1) mice. To be noted: endpoint: median survival time, higher = longer survival. The procedure, abridged: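 Mice carrying the transplanted tumor received test compound or vehicle. Survival was recorded in each group, and the value is the treated-group measurement divided by that of the vehicle-treated control group.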

Setting [1] is: dose: 50.0 mg/kg/injection, schedule: Q01DX005 (ip), vehicle: Klucel (hydroxypropylcellulose) (HPC).
Where [2] appears, read: dose: 100.0 mg/kg/injection, schedule: Q01DX005 (ip), vehicle: Klucel (hydroxypropylcellulose) (HPC).
[3] abbreviates: dose: 200.0 mg/kg/injection, schedule: Q01DX005 (ip), vehicle: Klucel (hydroxypropylcellulose) (HPC).
The mark [4] stands for this setting: dose: 50.0 mg/kg/injection, schedule: Q01DX005 (ip), vehicle: saline with Tween-80.
The mark [5] stands for this setting: dose: 100.0 mg/kg/injection, schedule: Q01DX005 (ip), vehicle: saline with Tween-80.
[6] abbreviates: dose: 200.0 mg/kg/injection, schedule: Q01DX005 (ip), vehicle: saline with Tween-80.
Setting [7] is: dose: 50.0 mg/kg/injection, schedule: Q01DX009 (ip), vehicle: saline with Tween-80.
Setting [8] is: dose: 100.0 mg/kg/injection, schedule: Q01DX009 (ip), vehicle: saline with Tween-80.
Where [9] appears, read: dose: 200.0 mg/kg/injection, schedule: Q01DX009 (ip), vehicle: saline with Tween-80.
Setting [10] is: dose: 60.0 mg/kg/injection, schedule: Q01DX005 (ip), vehicle: saline with Tween-80.
The mark [11] stands for this setting: dose: 120.0 mg/kg/injection, schedule: Q01DX005 (ip), vehicle: saline with Tween-80.
Where [12] appears, read: dose: 240.0 mg/kg/injection, schedule: Q01DX005 (ip), vehicle: saline with Tween-80.
The mark [13] stands for this setting: dose: 50.0 mg/kg/injection, schedule: Q01DX009 (ip), vehicle: Klucel (hydroxypropylcellulose) (HPC).
Setting [14] is: dose: 100.0 mg/kg/injection, schedule: Q01DX009 (ip), vehicle: Klucel (hydroxypropylcellulose) (HPC).
[15] abbreviates: dose: 200.0 mg/kg/injection, schedule: Q01DX009 (ip), vehicle: Klucel (hydroxypropylcellulose) (HPC).

“And” between values parts separate entries of the source, which are not always exact repeats. Identical values can stand only once. Toxic doses and inconclusive results are not listed.

For the compound `Cc1csc2c3ccccc3cc(=O)n12`, the T/C (dose: 12.5 mg/kg/injection, schedule: Q01DX005 (ip), vehicle: Klucel (hydroxypropylcellulose) (HPC)) was 95 % of control; the T/C (dose: 25.0 mg/kg/injection, schedule: Q01DX005 (ip), vehicle: Klucel (hydroxypropylcellulose) (HPC)) was 99 % of control; the T/C under setting [1] was 100 % of control; the T/C (dose: 100.0 mg/kg/injection, schedule: Q01DX001 (ip), vehicle: Klucel (hydroxypropylcellulose) (HPC)) is 98 % of control.
Consider `C#CCSc1nnnn1-c1ccc(Br)c(C)c1`, for which the T/C under setting [1] is 101 % of control, the T/C under setting [2] was 92 % of control and the T/C under setting [3] is 101 % of control.
In the case of `CCCC1C(CC)C=C(CC)C(O)C1(CC)CO` (centres undefined), the T/C under setting [4] was 97 % of control, the T/C under setting [5] is 97 % of control and the T/C under setting [6] was 97 % of control.
For `C1CC[N-]CC1.C1CC[N-]CC1.C1CC[N-]CC1.C1CC[N-]CC1.O=S(=O)(O)O.[Cu+2]`, the T/C is, setting by setting: (dose: 10.0 mg/kg/injection, schedule: Q04DX002 (ip), vehicle: saline) 100 % of control; (dose: 20.0 mg/kg/injection, schedule: Q04DX002 (ip), vehicle: saline) 110 % of control.
For the compound `O=S1(c2ccccc2)=NC(Nc2ccccc2)=Nc2ccccc21` (centres undefined), the T/C reads like this: under setting [7], 107 % of control; under setting [8], 101 % of control; under setting [9], 111 % of control.
`C/C(NN(C)C)=C(\C#N)C(=O)/C=C/c1cccs1`: the T/C under setting [10] was 105 % of control, the T/C under setting [11] was 98 % of control and the T/C under setting [12] was 96 % of control.
Regarding `COc1cccc2c1C(=O)c1c(O)c3c(c(O)c1C2=O)[C@@H](OC)[C@@](O)(C(C)=O)C[C@@H]3OC1CC(N)C(O)C(C)O1` (some centres undefined), the T/C (dose: 3.13 mg/kg/injection, schedule: Q04DX003 (ip), vehicle: saline) is 110 % of control and the T/C (dose: 6.25 mg/kg/injection, schedule: Q04DX003 (ip), vehicle: saline) is 115 % of control.
Regarding `CC(NC(=O)C(C)Oc1ccc(Cl)cc1Cl)C(=O)O` (centres undefined), the T/C reads like this: under setting [4], 101 % of control; under setting [5], 99 % of control; under setting [6], 100 % of control.
`CCCCCCCCCCCCCCOC(=O)C(N)Cc1ccc(O)cc1` (centres undefined): the T/C (dose: 60.0 mg/kg/injection, schedule: Q01DX005 (ip), vehicle: Klucel (hydroxypropylcellulose) (HPC)) was 100 % of control; the T/C (dose: 120.0 mg/kg/injection, schedule: Q01DX005 (ip), vehicle: Klucel (hydroxypropylcellulose) (HPC)) was 100 % of control; the T/C (dose: 240.0 mg/kg/injection, schedule: Q01DX005 (ip), vehicle: Klucel (hydroxypropylcellulose) (HPC)) was 100 % of control.
Take `CCc1nc(N)nc(N)c1-c1ccc(N(C)C)c(N)c1`: the T/C is, setting by setting: under setting [1], 100 % of control; under setting [2], 96 % of control.
Regarding `CC1C(=O)C23CC1CCC2C12COC(=O)C1C(C)(C)C(O)CC2OC3=O` (centres undefined), the T/C is, setting by setting: (dose: 50.0 mg/kg/injection, schedule: Q04DX002 (ip), vehicle: saline with Tween-80) 113 % of control; (dose: 100.0 mg/kg/injection, schedule: Q04DX002 (ip), vehicle: saline with Tween-80) 93 % of control; (dose: 200.0 mg/kg/injection, schedule: Q04DX002 (ip), vehicle: saline with Tween-80) 112 % of control.
In the case of `COc1cc2c(cc1OC)CC(=O)OC2`, the T/C by setting is: under setting [1], 105 % of control; under setting [2], 102 % of control; under setting [3], 103 % of control.
As to `C=Cc1cnc([N+](=O)[O-])n1C`, the T/C under setting [13] was 110 % of control and 123 % of control; the T/C under setting [14] is 111 % of control; the T/C under setting [15] is 153 % of control.
As for `Cc1cc2[nH]c3c(C#N)c(O)c(C)c(=O)n3c2cc1C`, the T/C is, setting by setting: under setting [10], 100 % of control; under setting [11], 100 % of control; under setting [12], 100 % of control.
For the compound `O=C(O)CCCC(=O)c1ccc2ccccc2c1`, the T/C by setting is: under setting [7], 98 % of control; under setting [8], 98 % of control; under setting [9], 99 % of control.
In the case of `Cc1cc(C)n(C2=NCCN2)n1`, the T/C reads like this: (dose: 60.0 mg/kg/injection, schedule: Q01DX005 (ip), vehicle: saline) 99 % of control; (dose: 120.0 mg/kg/injection, schedule: Q01DX005 (ip), vehicle: saline) 96 % of control.
For `CC1(C)CC(Nc2ccccc2)=CC(Nc2ccccc2)=N1`, the T/C is 105 % of control under setting [1], 98 % of control under setting [2] and 105 % of control under setting [3].
On to `OC(COc1c2ccccc2nc2ccccc12)CN1CCOCC1` (centres undefined), for which the T/C runs as follows: under setting [4], 99 % of control; under setting [5], 93 % of control.
For `CC1C(=O)C(C)C(c2ccccc2)N(C)C1c1ccccc1` (centres undefined), the T/C is, setting by setting: under setting [4], 96 % of control; under setting [10], 101 % of control; under setting [5], 106 % of control; under setting [11], 96 % of control; under setting [6], 98 % of control; under setting [12], 106 % of control.
As for `CCOc1ccc2nc(NN=O)sc2c1`, the T/C was 100 % of control (dose: 1.56 mg/kg/injection, schedule: Q01DX009 (ip), vehicle: water); 100 % of control and 95 % of control (dose: 3.12 mg/kg/injection, schedule: Q01DX009 (ip), vehicle: water); 101 % of control and 98 % of control (dose: 6.25 mg/kg/injection, schedule: Q01DX009 (ip), vehicle: water); 100 % of control and 104 % of control (dose: 12.5 mg/kg/injection, schedule: Q01DX009 (ip), vehicle: water); 100 % of control and 101 % of control (dose: 25.0 mg/kg/injection, schedule: Q01DX009 (ip), vehicle: water); 104 % of control (dose: 50.0 mg/kg/injection, schedule: Q01DX009 (ip), vehicle: water).
As to `C=C1CCC2C(c3c(C)c(O)c4c(c31)C(=O)C(C)C4)C2(C)C` (centres undefined), the T/C was 110 % of control (dose: 3.0 mg/kg/injection, schedule: Q01DX009 (ip), vehicle: Klucel (hydroxypropylcellulose) (HPC)); 108 % of control (dose: 6.0 mg/kg/injection, schedule: Q01DX009 (ip), vehicle: Klucel (hydroxypropylcellulose) (HPC)); 103 % of control (dose: 12.0 mg/kg/injection, schedule: Q01DX009 (ip), vehicle: Klucel (hydroxypropylcellulose) (HPC)); 108 % of control (dose: 24.0 mg/kg/injection, schedule: Q01DX009 (ip), vehicle: Klucel (hydroxypropylcellulose) (HPC)).
Regarding `CCCCP(=O)(CCCC)CCCC.CCCCP(=O)(CCCC)CCCC.CCCCP(=O)(CCCC)CCCC.CCCCP(=O)(CCCC)CCCC.[Fe+3].[O-][Cl+3]([O-])([O-])O`, the T/C runs as follows: (dose: 50.0 mg/kg/injection, schedule: Q01DX009 (ip), vehicle: saline + Tween-80 + alcohol) 112 % of control; (dose: 100.0 mg/kg/injection, schedule: Q01DX009 (ip), vehicle: saline + Tween-80 + alcohol) 93 % of control; (dose: 200.0 mg/kg/injection, schedule: Q01DX009 (ip), vehicle: saline + Tween-80 + alcohol) 89 % of control.
In the case of `CC(=O)CC(=O)Nc1cc(Cl)c(NC(=O)CC(C)=O)cc1Cl`, the T/C was 100 % of control (dose: 100.0 mg/kg/injection, schedule: Q04DX003 (ip), vehicle: saline with Tween-80); 104 % of control (dose: 200.0 mg/kg/injection, schedule: Q04DX003 (ip), vehicle: saline with Tween-80); 95 % of control (dose: 400.0 mg/kg/injection, schedule: Q04DX003 (ip), vehicle: saline with Tween-80).
Consider `CC(=O)Nc1ccc2c3c(cccc13)CC2`, for which the T/C is 101 % of control under setting [13], 106 % of control under setting [14] and 108 % of control under setting [15].
In the case of `O=C(c1ccccc1)N(C(=O)c1ccccc1)c1ccccn1`, the T/C runs as follows: (dose: 12.5 mg/kg/injection, schedule: Q01DX009 (ip), vehicle: saline with Tween-80) 103 % of control; (dose: 25.0 mg/kg/injection, schedule: Q01DX009 (ip), vehicle: saline with Tween-80) 106 % of control; under setting [7], 112 % of control; under setting [8], 87 % of control; under setting [9], 86 % of control; (dose: 400.0 mg/kg/injection, schedule: Q01DX009 (ip), vehicle: saline with Tween-80) 93 % of control.
Take `CN(CCO)c1ccc([N+](=O)[O-])c2nonc12`: the T/C is 99 % of control and 103 % of control (dose: 25.0 mg/kg/injection, schedule: Q04DX002 (ip), vehicle: saline); 99 % of control (2×) and 115 % of control (dose: 50.0 mg/kg/injection, schedule: Q04DX002 (ip), vehicle: saline); 100 % of control and 101 % of control (dose: 100.0 mg/kg/injection, schedule: Q04DX002 (ip), vehicle: saline).
